# Target: T1, IRAK4 (Homo sapiens, UniProt Q9NWZ3)
# T1 sequence (Q9NWZ3 1-460): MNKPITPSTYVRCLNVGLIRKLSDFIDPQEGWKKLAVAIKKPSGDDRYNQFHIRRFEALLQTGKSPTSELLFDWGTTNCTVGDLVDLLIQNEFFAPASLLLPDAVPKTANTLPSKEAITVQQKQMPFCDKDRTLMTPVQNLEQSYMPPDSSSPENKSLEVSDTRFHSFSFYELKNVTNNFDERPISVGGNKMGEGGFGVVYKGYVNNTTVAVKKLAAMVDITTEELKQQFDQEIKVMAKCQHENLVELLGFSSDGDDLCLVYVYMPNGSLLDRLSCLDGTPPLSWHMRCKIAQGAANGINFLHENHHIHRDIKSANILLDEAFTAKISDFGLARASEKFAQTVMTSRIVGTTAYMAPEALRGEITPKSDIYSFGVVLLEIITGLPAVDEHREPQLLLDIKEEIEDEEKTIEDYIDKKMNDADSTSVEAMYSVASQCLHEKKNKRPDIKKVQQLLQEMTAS
# Experiment: Assay for inhibitory effect of compound on IRAK4 kinase activity (KinEASE-STK S1 HTRF kit)
# Type: biochemical
# Details: not given
# Method: Example 1: Kinase activity assay
# Assay for inhibitory effect of compound on IRAK4 kinase activity
# The inhibitory effect of the compound on IRAK4 kinase activity was measured using the KinEASE-STK S1 serine/threonine kinase kit (Cisbio). The specific method was as follows: the compound was dissolved in dimethyl sulfoxide and then subjected to 3-fold serial dilution in dimethyl sulfoxide, yielding final test compound concentrations in the reaction system ranging from 5,000 nM to 0.0254 nM. The kinase at a final concentration of 8 nM was added, followed by incubation at rt for 15 minutes. Subsequently, biotinylated STK1 substrate at a final concentration of 400 nM and adenosine triphosphate (ATP) at a final concentration of 80 µM were sequentially added, and the mixture was incubated at 37°C for 90 minutes. Then, the reaction was terminated by adding an anti-phosphoserine/threonine antibody conjugated with a europium cryptate and streptavidin-conjugated XL665 to the reaction system. After incubation at rt for 1 hour, the fluorescence intensity at emission wavelengths of 620 nm and 665 nm for each well was measured using an EnVision microplate reader (PerkinElmer) in HTRF mode. The ratio value was calculated using the formula: Ratio = (665 nm/620 nm)×10^4 The inhibition rate of the compound at each concentration was calculated using the formula: Inhibition% = [1-(Signal sample-Signal min)/(Signal max-Signal min)]×100. Subsequently, the dose-response curve was fitted by nonlinear curve fitting of log concentration versus inhibition rate using Fit Modela (205) in XLfit to give the IC50 value of the compound for inhibition of protein activity.
row,Compound,IC50 [nM]
1,NC(=O)c1nn(-c2ccc(C(=O)O)nc2)cc1NC(=O)c1cccc(C(F)(F)F)n1 [Compound A31],100 to 1000
2,COc1nn(-c2ccc(N3CCNCC3)cc2)cc1NC(=O)c1cccc(C(F)(F)F)n1 [Compound A39],100 to 1000
3,CS(=N)(=O)c1cn(-c2ccccc2)nc1NC(=O)c1cccc(C(F)(F)F)n1 (stereo not shown) [Compound A60],> 1000

# Same assay, conditions: kinase 8 nM, ATP 80 µM, 37°C 90 minutes; read-out: IRAK4 HTRF IC50
row,Compound,IC50 [nM]
1,NCc1ccc(-n2cc(NC(=O)c3cccc(C(F)(F)F)n3)c(C(N)=O)n2)cc1 [Compound A20],< 100
2,CNCc1ccc(-n2cc(NC(=O)c3cccc(C(F)(F)F)n3)c(C(N)=O)n2)cc1 [Compound A21],< 100
3,CN(C)Cc1ccc(-n2cc(NC(=O)c3cccc(C(F)(F)F)n3)c(C(N)=O)n2)cc1 [Compound A22],< 100
4,CC(=O)NCc1ccc(-n2cc(NC(=O)c3cccc(C(F)(F)F)n3)c(C(N)=O)n2)cc1 [Compound A23],< 100
5,CC(=O)N(C)Cc1ccc(-n2cc(NC(=O)c3cccc(C(F)(F)F)n3)c(C(N)=O)n2)cc1 [Compound A24],< 100
6,NC(=O)c1nn(-c2ccc(N3CCNCC3)cc2)cc1NC(=O)c1cccc(C(F)(F)F)n1 [Compound A25],< 100
7,CN1CCN(c2ccc(-n3cc(NC(=O)c4cccc(C(F)(F)F)n4)c(C(N)=O)n3)cc2)CC1 [Compound A26],< 100
8,CC(=O)N1CCN(c2ccc(-n3cc(NC(=O)c4cccc(C(F)(F)F)n4)c(C(N)=O)n3)cc2)CC1 [Compound A27],< 100
9,NC(=O)c1nn(-c2ccc(N3CCN(C(=O)c4ccccc4)CC3)cc2)cc1NC(=O)c1cccc(C(F)(F)F)n1 [Compound A28],< 100
10,NC(=O)c1nn(-c2cccnc2)cc1NC(=O)c1cccc(C(F)(F)F)n1 [Compound A29],100 to 1000
11,NC(=O)c1nn(C2CC(N)C2)cc1NC(=O)c1cccc(C(F)(F)F)n1 (stereo not shown) [Compound A32],< 100
12,NC(=O)c1nn(C2CNC2)cc1NC(=O)c1cccc(C(F)(F)F)n1 [Compound A33],100 to 1000
13,NC(=O)c1nn(C2COC3(CCNCC3)C2)cc1NC(=O)c1cccc(C(F)(F)F)n1 (stereo not shown) [Compound A35],100 to 1000
14,NC(=O)c1nn(C2CCC(N)CC2)cc1NC(=O)c1cccc(C(F)(F)F)n1 (stereo not shown) [Compound A36],100 to 1000
15,O=C(Nc1cn(-c2ccc(N3CCNCC3)cc2)nc1C(F)F)c1cccc(C(F)(F)F)n1 [Compound A42],< 100
16,"CNC1CC(c2nn(-c3ccccc3)cc2NC(=O)c2cccc(C(F)(F)F)n2)C1 (stereo not shown) [Compound A44, N-(3-(3-(Methylamino)cyclobutyl)-1-phenyl-1H-pyrazol-4-yl)-6-(trifluoromethyl)picolinamide]",> 1000
17,NC(=O)c1nn(-c2cncnc2)cc1NC(=O)c1cccc(C(F)(F)F)n1 [Compound A45],100 to 1000
18,"CC(C)(O)c1nn(-c2ccccc2)cc1NC(=O)c1cccc(C(F)(F)F)n1 [Compound A46, N-(3-(2-hydroxypropan-2-yl)-1-phenyl-1H-pyrazol-4-yl)-6-(trifluoromethyl)picolinamide]",100 to 1000
19,NC(=O)c1cn(-c2ccccc2)cc1NC(=O)c1cccc(C(F)(F)F)n1 [Compound A47],< 100
20,NC(=O)c1[nH]c(-c2ccccc2)cc1NC(=O)c1cccc(C(F)(F)F)n1 [Compound A48],< 100
21,NC(=O)c1sc(-c2ccccc2)cc1NC(=O)c1cccc(C(F)(F)F)n1 [Compound A50],> 1000
22,NC(=O)c1cc(-c2ccccc2)sc1NC(=O)c1cccc(C(F)(F)F)n1 [Compound A51],> 1000
23,NC(=O)c1cc(-c2ccccc2)oc1NC(=O)c1cccc(C(F)(F)F)n1 [Compound A53],> 1000

row,Compound,IC50 [nM]
1,NC(=O)c1nc(-c2ccccc2)[nH]c1NC(=O)c1cccc(C(F)(F)F)n1 [Compound A54],> 1000
2,"NC(=O)c1sc(-c2ccccc2)nc1NC(=O)c1cccc(C(F)(F)F)n1 [Compound A55, 2-Phenyl-4-(6-(trifluoromethyl)picolinamido)thiazole-5-carboxamide]",> 1000
3,"NC(=O)c1nc(-c2ccccc2)sc1NC(=O)c1cccc(C(F)(F)F)n1 [Compound A56, 2-Phenyl-5-(6-(trifluoromethyl)picolinamido)thiazole-4-carboxamide]",> 1000
4,"NC(=O)c1oc(-c2ccccc2)nc1NC(=O)c1cccc(C(F)(F)F)n1 [Compound A57, 2-Phenyl-4-(6-(trifluoromethyl)picolinamido)oxazole-5-carboxamide]",> 1000
5,"NC(=O)c1nc(-c2ccccc2)oc1NC(=O)c1cccc(C(F)(F)F)n1 [Compound A58, 2-Phenyl-5-(6-(trifluoromethyl)picolinamido)oxazole-4-carboxamide]",> 1000
6,"NS(=O)(=O)c1cn(-c2ccccc2)nc1NC(=O)c1cccc(C(F)(F)F)n1 [Compound A59, N-(1-phenyl-4-sulfamoyl-1H-pyrazol-3-yl)-6-(trifluoromethyl)picolinamide]",> 1000
7,"CC(C)(O)c1cn(-c2ccccc2)nc1NC(=O)c1cccc(C(F)(F)F)n1 [Compound A61, N-(4-(2-hydroxypropan-2-yl)-1-phenyl-1H-pyrazol-3-yl)-6-(trifluoromethyl)picolinamide]",> 1000
8,"NS(=O)(=O)c1nn(-c2ccccc2)cc1NC(=O)c1cccc(C(F)(F)F)n1 [Compound A62, N-(1-phenyl-3-sulfamoyl-1H-pyrazol-4-yl)-6-(trifluoromethyl)picolinamide]",100 to 1000
9,"N#Cc1nn(-c2ccccc2)cc1NC(=O)c1cccc(C(F)(F)F)n1 [Compound A64, N-(3-cyano-1-phenyl-1H-pyrazol-4-yl)-6-(trifluoromethyl)picolinamide]",> 1000
10,"O=C(Nc1cn(-c2ccccc2)nc1C1CC(O)C1)c1cccc(C(F)(F)F)n1 (stereo not shown) [Compound A65, N-(3-(3-hydroxycyclobutyl)-1-phenyl-1H-pyrazol-4-yl)-6-(trifluoromethyl)picolinamide]",> 1000
11,"O=C(Nc1cn(-c2ccccc2)nc1C1CC1)c1cccc(C(F)(F)F)n1 [Compound A71, N-(3-cyclopropyl-1-phenyl-1H-pyrazol-4-yl)-6-(trifluoromethyl)picolinamide]",> 1000
12,"O=C(Nc1cn(-c2ccccc2)nc1C1CCC1)c1cccc(C(F)(F)F)n1 [Compound A72, N-(3-cyclobutyl-1-phenyl-1H-pyrazol-4-yl)-6-(trifluoromethyl)picolinamide]",> 1000
13,"O=C(Nc1cn(-c2ccccc2)nc1CO)c1cccc(C(F)(F)F)n1 [Compound A74, N-(3-(hydroxymethyl)-1-phenyl-1H-pyrazol-4-yl)-6-(trifluoromethyl)picolinamide]",100 to 1000
14,"CC(O)c1nn(-c2ccccc2)cc1NC(=O)c1cccc(C(F)(F)F)n1 (stereo not shown) [Compound A75, N-(3-(1-hydroxyethyl)-1-phenyl-1H-pyrazol-4-yl)-6-(trifluoromethyl)picolinamide]",100 to 1000
15,"O=C(Nc1cn(-c2ccccc2)nc1C(=O)NC1CC1)c1cccc(C(F)(F)F)n1 [Compound A86, N-(3-(cyclopropylcarbamoyl)-1-phenyl-1H-pyrazol-4-yl)-6-(trifluoromethyl)picolinamide]",100 to 1000
16,NC(=O)c1nn(-c2ccccc2)cc1NC(=O)c1cccc(-c2cc[nH]n2)n1 [Compound A88],< 100
17,NC(=O)c1nn(-c2ccccc2)cc1NC(=O)c1cccc(-c2cn[nH]c2)n1 [Compound A89],< 100
18,NC(=O)c1nn(-c2ccccc2)cc1NC(=O)c1cccc(-c2c[nH]cn2)n1 [Compound A90],< 100
19,NC(=O)c1nn(-c2ccccc2)cc1NC(=O)c1cccc(-c2cc[nH]c2)n1 [Compound A91],100 to 1000
20,"NS(=O)(=O)c1nn(-c2ccccc2)cc1NC(=O)c1cccc(-c2cc[nH]n2)n1 [Compound A92, N-(1-phenyl-3-sulfamoyl-1H-pyrazol-4-yl)-6-(1H-pyrazol-3-yl)picolinamide]",< 100
21,NS(=O)(=O)c1nn(-c2ccccc2)cc1NC(=O)c1cccc(-c2cn[nH]c2)n1 [Compound A93],< 100
22,"NS(=O)(=O)c1nn(-c2ccccc2)cc1NC(=O)c1cccc(-c2c[nH]cn2)n1 [Compound A94, 6-(1H-imidazol-4-yl)-N-(1-phenyl-3-sulfamoyl-1H-pyrazol-4-yl)picolinamide]",< 100
23,"NS(=O)(=O)c1nn(-c2ccccc2)cc1NC(=O)c1cccc(-c2cc[nH]c2)n1 [Compound A95, N-(1-phenyl-3-sulfamoyl-1H-pyrazol-4-yl)-6-(1H-pyrrol-3-yl)picolinamide]",< 100

# From EP4763839A1 (Pamplona Therapeutics (Shenzhen) Co., Ltd., priority 2023, dated 2025)
